{
  "source": "patent US20100076091A1",
  "about": "“COMPOSITION AND METHOD FOR SUPPRESSING LIPOOXIDATION OF ERYTHROCYTE” (TOHOKU UNIVERSITY, priority 2007, published 2010)",
  "key": {"[1]": {"settings": "human, in vivo", "description": "Blood (12 mL) of a subject after the subject had fasted for 12 hours was collected using EDTA. Blood was centrifuged (1000 g, 10 minutes, 4° C.), so that 6 mL of erythrocytes was obtained. To wash erythrocytes, 5-fold volume (30 mL) of physiological phosphate buffer (pH 8.0) was added and then centrifugation was carried out (2300 g, 10 minutes, 4° C.), thereby removing supernatants. This procedure was repeated 3 times, so that 4 mL of packed cells (washed erythrocytes) was obtained. • 1-2. Extraction of Carotenoid from Erythrocytes and Quantitative Determination Thereof\nTwo (2) mL of water was added to 2 mL of packed cells (washed erythrocytes) for hemolysis of erythrocytes. […] Fifty (50) μL of the solution was subjected to the following UV-HPLC analysis, so that erythrocyte carotenoid was quantitatively determined. […]\nTo examine whether the ingested xanthophyll would be actually transferred to erythrocytes so as to suppress accumulation of peroxidized phospholipids, lutein that exists at the highest concentration among human erythrocyte xanthophyll members was administered to 6 normal subjects (3 male subjects and 3 female subjects) for 4 weeks. […] Erythrocytes were separated from the thus obtained blood and then the concentration of erythrocyte lutein and the peroxidized phospholipid level were measured. […]"}, "erythrocytes": {"test_system": "erythrocytes", "assay": "Search for ingredients capable of preventing lipoperoxidation of erythrocytes"}, "[2]": {"test_system": "peroxidized phospholipids in erythrocytes", "assay": "Erythrocyte peroxidized phospholipid level (PCOOH, PEOOH) after oral ingestion, by CL-HPLC", "format": "in vivo, human", "settings": "within 4 weeks after the start of ingestion, lutein 9.7 mg/day; 6 normal subjects", "description": "Packed cells (washed erythrocytes, 1.5 mL) prepared in a manner similar to that in 1-1 of Example 1 were added to a 50-mL screw cap glass centrifugation tube and then 1.5 mL of a 0.1 mM EDTA-2Na aqueous solution was added, followed by gentle agitation. The solution was allowed to stand in ice for 15 minutes and then 15 mL of isopropanol was added, followed by gentle agitation. The solution was allowed to stand for 30 minutes in ice and then 15 mL of chloroform was added. After vortexing, the solution was allowed to stand for 30 minutes in ice and then centrifuged (1000 g, 10 minutes, 4° C.). […] Solvent removal was carried out under nitrogen and then the total lipid level was measured by a gravimetric method. […]\nPeroxidized phospholipids (phosphatidyl choline hydroperoxide (PCOOH) and phosphatidylethanolamine hydroperoxide (PEOOH)) in erythrocytes were measured by chemiluminescence-high performance liquid chromatography (CL-HPLC). […] After separation of PCOOH and PEOOH from other lipid components by HPLC, PCOOH and PEOOH are reacted with a luminescence reagent and then hydroperoxide-group-derived chemiluminescence is detected and quantitatively determined. Specifically, the above obtained chloroform/methanol (2:1, v/v) solution (40 μL) of total erythrocyte lipids was subjected to CL-HPLC and then peroxidized phospholipids were quantitatively determined. […]"}},
  "data": [
    {"smiles": "CC1=C(/C=C/C(C)=C/C=C/C(C)=C/C=C/C=C(C)/C=C/C=C(C)/C=C/C2=C(C)C[C@@H](O)CC2(C)C)C(C)(C)C[C@H](O)C1", "note": "[zeaxanthin]", "values": [
      {"measurement": "concentration of erythrocyte zeaxanthin, average", "setting": "[1]", "value": 52, "unit": "pmol/g hemoglobin"}
    ]},
    {"smiles": "Cc1c(C)c2c(c(C)c1O)CC[C@@](C)(CCC[C@H](C)CCC[C@H](C)CCCC(C)C)O2", "note": "[α-tocopherol]", "values": [
      {"measurement": "prevention of lipoperoxidation of erythrocytes", "setting": "erythrocytes", "value": "has no such effects"}
    ]},
    {"smiles": "CC1=C[C@H](O)CC(C)(C)[C@H]1/C=C/C(C)=C/C=C/C(C)=C/C=C/C=C(C)/C=C/C=C(C)/C=C/C1=C(C)C[C@@H](O)CC1(C)C", "note": "[lutein]", "values": [
      {"measurement": "peroxidized phospholipid level in erythrocytes compared with the level before the start of ingestion", "setting": "[2]", "value": "significantly decreased"}
    ]}
  ]
}
